From US20240116985A1, “STAPLED PEPTIDES AND METHODS THEREOF” (priority 2020, published 2024)
pIC50: −log10 of the molar value. ≈ marks a conversion by molar mass, not a printed value. Read-outs that look alike come from different tables or passages of the source.

Columns and labels:
[1] = CHI Log D procedure; assay type: physicochemical; details: for CHI Log D: pH 7.4
[2] = Solubility in PBS; assay type: physicochemical
Procedure, shortened: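 Steps: ultracentrifuge the peptide PBS solution, inject the supernatant on HPLC, inject a 50 μM peptide DMSO solution as reference, then calculate solubility as area ratio (PBS/DMSO) × 50 uM.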

[3] = target: T1, full-length beta-Catenin (Uniprot ID P35222) (Homo sapiens, UniProt P35222); experiment: Fluorescence polarization IC50 (beta-catenin / 5FAM-TCF4 10-53 competition); assay type: binding; details: fluorescence polarization; read-out: beta-Catenin FP IC50
T1 construct: 10 nM full-length beta-Catenin (Uniprot ID P35222)
T1 sequence (P35222 1-781): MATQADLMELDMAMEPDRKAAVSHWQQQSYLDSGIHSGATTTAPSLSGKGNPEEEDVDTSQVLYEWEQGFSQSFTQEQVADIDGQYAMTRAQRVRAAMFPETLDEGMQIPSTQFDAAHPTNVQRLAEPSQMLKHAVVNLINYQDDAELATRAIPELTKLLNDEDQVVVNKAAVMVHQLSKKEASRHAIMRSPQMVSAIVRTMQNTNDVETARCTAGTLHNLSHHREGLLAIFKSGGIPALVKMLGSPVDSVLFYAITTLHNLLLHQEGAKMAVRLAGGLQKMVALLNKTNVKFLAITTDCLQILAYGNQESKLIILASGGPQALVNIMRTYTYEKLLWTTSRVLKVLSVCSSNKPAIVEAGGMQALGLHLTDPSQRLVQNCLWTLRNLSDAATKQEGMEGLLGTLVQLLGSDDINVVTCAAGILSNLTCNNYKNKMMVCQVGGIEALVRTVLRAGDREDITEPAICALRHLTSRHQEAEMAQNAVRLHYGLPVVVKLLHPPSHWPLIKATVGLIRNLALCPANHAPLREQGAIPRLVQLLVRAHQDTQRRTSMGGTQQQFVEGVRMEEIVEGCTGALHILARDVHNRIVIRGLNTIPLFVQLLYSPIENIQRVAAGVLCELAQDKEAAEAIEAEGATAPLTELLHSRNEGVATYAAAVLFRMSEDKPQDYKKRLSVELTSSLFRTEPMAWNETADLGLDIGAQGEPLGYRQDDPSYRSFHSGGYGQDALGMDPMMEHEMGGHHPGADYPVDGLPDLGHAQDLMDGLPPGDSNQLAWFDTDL

[4] = target: T2, beta-catenin/TCF4 engagement (Homo sapiens, UniProt P35222); experiment: Nano-BRET target engagement assay (B-cat-Halo & TCF4-Luc in HEK293 cells); assay type: cell-based; details: absolute IC50; read-out: NanoBRET Abs IC50
T2 construct: expressed in transfected cells; host or cells: HEK293
T2 sequence (P35222 1-781): T1 sequence (P35222 1-781)

Row | SMILES | CHI Log D [1] | Solubility ([2]; 15 min) | Solubility [2] | chromatographic logD ([1]; pH 7.4, CHI Log D) | pIC50 [3] | pIC50 [4] | Solubility ([2]; Solubility (uM))
1 | CC(=O)N1CCC[C@]12CC=CCCCC1(CCCC=CCCCCCC[C@@](C)(C(=O)N[C@@H](Cc3ccccc3)C(=O)N[C@@H](Cc3c[nH]c4ccccc34)C(=O)N[C@@H](CCC(N)=O)C(N)=O)NC(=O)[C@H](C(C)C)NC(=O)C(Cc3cncn3C)NC(=O)[C@H](C)NC(=O)[C@H](C)NC(=O)[C@H](CC(=O)O)NC(=O)[C@H](CC(=O)O)NC1=O)NC(=O)[C@H](C)NC(=O)[C@H](CC(=O)O)NC2=O (single isomer, unassigned) [I-332, Ac-PL3-Asp-Ala-B5-Asp-Asp-Ala-Ala-3meH-Val-S8-Phe-Trp-Gln-NH2] | 2.038 | 40 µM (≈ 71.4 µg/mL) | – | – | – | – | –
2 | CC(=O)N[C@@H](Cc1ccccc1)C(=O)N[C@@H](CC(=O)O)C(=O)N[C@@H](C)C(=O)N[C@]1(C)CCCCCCC=CCOC(=O)N2CC[C@@](C(=O)N[C@@H](Cc3ccccc3)C(=O)N[C@@H](Cc3c[nH]c4ccccc34)C(=O)N[C@@H](CCC(N)=O)C(N)=O)(C2)NC(=O)[C@H](C(C)C)NC(=O)[C@H](Cc2ccccc2)NC(=O)[C@H](C)NC(=O)[C@H](C)NC(=O)[C@H](Cc2ccc3ccccc3c2)NC(=O)[C@H](CC(=O)O)NC1=O [I-116, Ac-Phe-Asp-Ala-R8-Asp-2NapA-Ala-Ala-Phe-Val-PyrS-Phe-Trp-Gln-NH2] | 2.134 | – | 11 µM (≈ 20.9 µg/mL) | – | – | – | –
3 | CC(=O)N1CCC[C@]12CC=CCCCC1(CCCC=CCCCCCC[C@@](C)(C(=O)N[C@@H](Cc3ccccc3)C(=O)N[C@@H](Cc3c[nH]c4ccccc34)C(=O)N[C@@H](CCC(N)=O)C(N)=O)NC(=O)[C@H](C(C)C)NC(=O)[C@H](Cc3ccccc3)NC(=O)[C@H](C)NC(=O)[C@H](C)NC(=O)[C@H](Cc3cccc(F)c3)NC(=O)[C@H](CC(=O)O)NC1=O)NC(=O)[C@H](C)NC(=O)[C@H](CC(=O)O)NC2=O (stereo partly drawn) [I-257, Ac-PL3-Asp-Ala-B5-Asp-3FF-Ala-Ala-Phe-Val-S8-Phe-Trp-Gln-NH2] | – | – | 10 µM (≈ 18.3 µg/mL) | 2.91 | – | – | –
4 | CC(=O)N1CCC[C@]12CC=CCCCC1(CCCC=CCCCOC(=O)N3CC[C@@](C(=O)N[C@@H](Cc4ccsc4)C(=O)N[C@@H](Cc4csc5ccccc45)C(=O)N[C@@H](CCC(N)=O)C(N)=O)(C3)NC(=O)[C@H](Cc3ccccc3C(F)(F)F)NC(=O)[C@H](Cc3ccccc3)NC(=O)[C@H](C)NC(=O)[C@H](C)NC(=O)[C@H](CC(=O)O)NC(=O)[C@H](CC(=O)O)NC1=O)NC(=O)[C@H](CC(C)(C)C)NC(=O)[C@H](CC(=O)O)NC2=O (stereo partly drawn) [I-1363, Ac-PL3-Asp-Npg-B5-Asp-Asp-Ala-Ala-Phe-2F3MeF-PyrS2-3Thi-BztA-Gln-NH2] | – | – | – | – | 8.05 | 5.26 | 12 µM (≈ 24.2 µg/mL)
5 | CC(=O)N1CCC[C@]12CC=CCCCC1(CCCC=CCCCOC(=O)N3CC[C@@](C(=O)N[C@@H](Cc4ccsc4)C(=O)N[C@@H](Cc4csc5ccccc45)C(=O)N[C@@H](CCC(N)=O)C(N)=O)(C3)NC(=O)[C@H](Cc3cccc(C(F)(F)F)c3)NC(=O)[C@H](Cc3ccccc3)NC(=O)[C@H](C)NC(=O)[C@H](C)NC(=O)[C@H](CC(=O)O)NC(=O)[C@H](CC(=O)O)NC1=O)NC(=O)[C@H](CC(C)(C)C)NC(=O)[C@H](CC(=O)O)NC2=O (stereo partly drawn) [I-1364, Ac-PL3-Asp-Npg-B5-Asp-Asp-Ala-Ala-Phe-3F3MeF-PyrS2-3Thi-BztA-Gln-NH2] | – | – | – | – | 8.05 | 4.98 | 17 µM (≈ 34.3 µg/mL)
6 | CC(=O)N1CCC[C@]12CC=CCCCC1(CCCC=CCCCOC(=O)N3CC[C@@](C(=O)N[C@@H](Cc4ccsc4)C(=O)N[C@@H](Cc4csc5ccccc45)C(=O)N[C@@H](CCC(N)=O)C(N)=O)(C3)NC(=O)[C@H](Cc3ccc(C(F)(F)F)cc3)NC(=O)[C@H](Cc3ccccc3)NC(=O)[C@H](C)NC(=O)[C@H](C)NC(=O)[C@H](CC(=O)O)NC(=O)[C@H](CC(=O)O)NC1=O)NC(=O)[C@H](CC(C)(C)C)NC(=O)[C@H](CC(=O)O)NC2=O (stereo partly drawn) [I-1365, Ac-PL3-Asp-Npg-B5-Asp-Asp-Ala-Ala-Phe-4F3MeF-PyrS2-3Thi-BztA-Gln-NH2] | – | – | – | – | 8.05 | 5.01 | 22 µM (≈ 44.4 µg/mL)
7 | CC(=O)N1CCC[C@]12CC=CCCCC1(CCCC=CCCCOC(=O)N3CC[C@@](C(=O)N[C@@H](Cc4ccccc4Cl)C(=O)N[C@@H](Cc4csc5ccccc45)C(=O)N[C@@H](CCC(N)=O)C(N)=O)(C3)NC(=O)[C@H](Cc3ccccc3)NC(=O)[C@H](Cc3ccccc3)NC(=O)[C@H](C)NC(=O)[C@H](C)NC(=O)[C@H](CC(=O)O)NC(=O)[C@H](CC(=O)O)NC1=O)NC(=O)[C@H](CC(C)(C)C)NC(=O)[C@H](CC(=O)O)NC2=O (stereo partly drawn) [I-1366, Ac-PL3-Asp-Npg-B5-Asp-Asp-Ala-Ala-Phe-Phe-PyrS2-2C1F-BztA-Gln-NH2] | – | – | 10 µM (≈ 19.8 µg/mL) | – | 8.15 | 5.12 | –
8 | CC(=O)N1CCC[C@]12CC=CCCCC1(CCCC=CCCCOC(=O)N3CC[C@@](C(=O)N[C@@H](Cc4ccccc4Cl)C(=O)N[C@@H](Cc4csc5ccccc45)C(=O)N[C@@H](CCC(N)=O)C(N)=O)(C3)NC(=O)[C@H](Cc3ccccc3C(F)(F)F)NC(=O)[C@H](Cc3ccccc3)NC(=O)[C@H](C)NC(=O)[C@H](C)NC(=O)[C@H](CC(=O)O)NC(=O)[C@H](CC(=O)O)NC1=O)NC(=O)[C@H](CC(C)(C)C)NC(=O)[C@H](CC(=O)O)NC2=O (stereo partly drawn) [I-1367, Ac-PL3-Asp-Npg-B5-Asp-Asp-Ala-Ala-Phe-2F3MeF-PyrS2-2C1F-BztA-Gln-NH2] | – | – | 10 µM (≈ 20.5 µg/mL) | – | 7.51 | 5.11 | –
9 | CC(=O)N1CCC[C@]12CC=CCCCC1(CCCC=CCCCOC(=O)N3CC[C@@](C(=O)N[C@@H](Cc4ccccc4Cl)C(=O)N[C@@H](Cc4csc5ccccc45)C(=O)N[C@@H](CCC(N)=O)C(N)=O)(C3)NC(=O)[C@H](Cc3cccc(C(F)(F)F)c3)NC(=O)[C@H](Cc3ccccc3)NC(=O)[C@H](C)NC(=O)[C@H](C)NC(=O)[C@H](CC(=O)O)NC(=O)[C@H](CC(=O)O)NC1=O)NC(=O)[C@H](CC(C)(C)C)NC(=O)[C@H](CC(=O)O)NC2=O (stereo partly drawn) [I-1368, Ac-PL3-Asp-Npg-B5-Asp-Asp-Ala-Ala-Phe-3F3MeF-PyrS2-2C1F-BztA-Gln-NH2] | – | – | 10 µM (≈ 20.5 µg/mL) | – | 7.36 | 4.85 | –
10 | CC(=O)N1CCC[C@]12CC=CCCCC1(CCCC=CCCCOC(=O)N3CC[C@@](C(=O)N[C@@H](Cc4ccccc4Cl)C(=O)N[C@@H](Cc4csc5ccccc45)C(=O)N[C@@H](CCC(N)=O)C(N)=O)(C3)NC(=O)[C@H](Cc3ccc(C(F)(F)F)cc3)NC(=O)[C@H](Cc3ccccc3)NC(=O)[C@H](C)NC(=O)[C@H](C)NC(=O)[C@H](CC(=O)O)NC(=O)[C@H](CC(=O)O)NC1=O)NC(=O)[C@H](CC(C)(C)C)NC(=O)[C@H](CC(=O)O)NC2=O (stereo partly drawn) [I-1369, Ac-PL3-Asp-Npg-B5-Asp-Asp-Ala-Ala-Phe-4F3MeF-PyrS2-2C1F-BztA-Gln-NH2] | – | – | 10 µM (≈ 20.5 µg/mL) | – | 7.54 | 5.00 | –
11 | CC(=O)N1CCC[C@]12CC=CCCCC1(CCCC=CCCCOC(=O)N3CC[C@@](C(=O)N[C@@H](Cc4ccsc4)C(=O)N[C@@H](Cc4csc5ccccc45)C(=O)N[C@H](CO)[C@@H](C)O)(C3)NC(=O)[C@H](Cc3ccccc3C(F)(F)F)NC(=O)[C@H](Cc3ccccc3)NC(=O)[C@H](C)NC(=O)[C@H](C)NC(=O)[C@H](CC(=O)O)NC(=O)[C@H](CC(=O)O)NC1=O)NC(=O)[C@H](CC(C)(C)C)NC(=O)[C@H](CC(=O)O)NC2=O (stereo partly drawn) [I-1370, Ac-PL3-Asp-Npg-B5-Asp-Asp-Ala-Ala-Phe-2F3MeF-PyrS2-3Thi-BztA-Thro1] | – | – | 10 µM (≈ 19.8 µg/mL) | – | 7.74 | 5.00 | –
12 | CC(=O)N1CCC[C@]12CC=CCCCC1(CCCC=CCCCOC(=O)N3CC[C@@](C(=O)N[C@@H](Cc4ccsc4)C(=O)N[C@@H](Cc4csc5ccccc45)C(=O)N[C@H](CO)[C@@H](C)O)(C3)NC(=O)[C@H](Cc3cccc(C(F)(F)F)c3)NC(=O)[C@H](Cc3ccccc3)NC(=O)[C@H](C)NC(=O)[C@H](C)NC(=O)[C@H](CC(=O)O)NC(=O)[C@H](CC(=O)O)NC1=O)NC(=O)[C@H](CC(C)(C)C)NC(=O)[C@H](CC(=O)O)NC2=O (stereo partly drawn) [I-1371, Ac-PL3-Asp-Npg-B5-Asp-Asp-Ala-Ala-Phe-3F3MeF-PyrS2-3Thi-BztA-Thro1] | – | – | 10 µM (≈ 19.8 µg/mL) | – | 7.66 | 4.96 | –
13 | CC(=O)N1CCC[C@]12CC=CCCCC1(CCCC=CCCCOC(=O)N3CC[C@@](C(=O)N[C@@H](Cc4ccsc4)C(=O)N[C@@H](Cc4csc5ccccc45)C(=O)N[C@H](CO)[C@@H](C)O)(C3)NC(=O)[C@H](Cc3ccc(C(F)(F)F)cc3)NC(=O)[C@H](Cc3ccccc3)NC(=O)[C@H](C)NC(=O)[C@H](C)NC(=O)[C@H](CC(=O)O)NC(=O)[C@H](CC(=O)O)NC1=O)NC(=O)[C@H](CC(C)(C)C)NC(=O)[C@H](CC(=O)O)NC2=O (stereo partly drawn) [I-1372, Ac-PL3-Asp-Npg-B5-Asp-Asp-Ala-Ala-Phe-4F3MeF-PyrS2-3Thi-BztA-Thro1] | – | – | 10 µM (≈ 19.8 µg/mL) | – | 7.54 | 4.99 | –
